Experimental data taken from patent US5336485A, “Method for protecting animals against tacrine induced cytotoxic injury using sterol compounds” (priority 1993, dated 1994).
Counter-ions that a name gives are not always drawn. Like-named read-outs stand apart in the source and are kept apart here.

How the values were obtained:
[1] = system: liver; experiment: CCl4 induced hepatotoxicity in rats (serum AST/ALT); type: in vivo, rat; conditions: for protection against CCl4 hepatotoxicity (in words): rats, serum enzyme levels
Experimental: In vivo experiments were performed to determine if alpha-TS administration protects the liver from chemical toxicity. The liver is the target organ for CCl4. CCl4 is a hepatotoxic agent that induces centrilobular liver necrosis through its metabolism to free radicals. Male Sprague-Dawley rats were given an intraperitoneal dose (100 mg/kg) of a tocopherol analog 24 hours prior to a CCl4 challenge (2.9g/kg given by oral garage). Forty eight hours after the challenge, the rats were sacrificed and the levels of aspartate aminotransferase (AST) and alanine aminotransferase (ALT) were measured.
As discussed above, SGOT levels provide a clinical assessment of hepatotoxicity (liver damage).
Succinate analogs were administered to male Sprague-Dawley rats 20 hours prior to a 1 g CCl4 /kg body weight oral challenge and the AST and ALT serum enzyme levels were measured 48 hours after the challenge.
Similar to the experiments were described above, the ionizable congeners were administered to Sprague-Dawley rats by i.p. injection of a 100 mg ionizable congener/kg body weight dose 20 hours prior to oral administration of a 1 g/kg dose of CCl4, and the AST and ALT levels were measured 48 hours after the CCl4 challenge.

[2] = system: male Sprague-Dawley rats; experiment: CCl4 induced lethality in rats; type: in vivo, rat; conditions: 1 g/kg
Experimental: The in vivo effect of alpha-TS was tested by administering a lethal oral dose of carbon tetrachloride (CC14) to male Sprague-Dawley rats.
In the experiment described in Table 3, a single dose of alpha-TS dissolved in peanut oil:ethanol (3:2) was given to male Sprague-Dawley rats. The dose was given 24 hours prior to an orally administered CCl4 challenge dissolved in peanut oil. Two to nine animals were tested per treatment. The control group comprised rats pretreated with the vehicle only. Survival was monitored for at least 7 days after the toxic insult.
In vivo experiments were performed to determine if the time the ionizable tocopherol analog (alpha-TS) is administered affects the cytoprotective functions. Male Sprague-Dawley rats were given a 100 mg/kg intraperitoneal dose of a tocopherol or succinate analog and were given a lethal dose of CCl4 (2.9g/kg by oral gavage). Table 7 contrasts the times of administration of the tocopherol or succinate analog and the times of administration of the lethal dose of CCl4 with the survival of the rats in the study (3to 6 rats per protective treatment).
Several tocopherol and succinate analogs were tested for CCl4 induced lethality. A single dose of the tocopherol or succinate analog was administered twenty four hours prior to orally administering 2.9 g CCl4 /kg body weight. Three to six animals were analyzed per treatment. The rats were monitored for seven days. […]

[3] = 100 mg/kg ip, 48 h after 1 g/kg CCl4 (Table 42)
[4] = 100 mg/kg ip, 48 h after 1 g/kg CCl4 (Table 33)
[5] = Rattus norvegicus, 100 mg/kg ip 20 h prior, 48 h after 1 g/kg CCl4, read-out: % Hepatoprotection
[6] = 100 mg/kg ip, 48 h after 1 g/kg CCl4 (Table 40)
[7] = 100 mg/kg ip (dihydrocholesterol 80 + sodium sulfate 30 mg/kg), 48 h after 1 g/kg CCl4 (Table 35)
[8] = 100 mg/kg ip, peanut oil vehicle, 48 h after 1 g/kg CCl4 (Table 39)
[9] = 100 mg/kg ip, 48 h after 1 g/kg CCl4 (Table 37)
[10] = 50 mg/kg ip, 48 h after 1 g/kg CCl4 (Table 41)

**Q.** How did the ALT ([1]; ip, 100 mg/kg, 48 h) turn out when `C[C@]12CC[C@@H]3c4ccc(OS(=O)(=O)O)cc4CC[C@H]3[C@@H]1CCC2=O` [Estrone sulfate, potassium salt] was run?
**A.** The ALT was 0.87 ± 0.59 10^3 units/L.

**Q.** And the AST ([1]; ip, 100 mg/kg, 48 h)?
**A.** Its AST is 4.19 ± 2.75 10^3 units/L.

**Q.** And the “protection against CCl4 hepatotoxicity (in words)” value (from here on “protection”) [1]?
**A.** The value was “slight cytoprotection”.

**Q.** What does the source list for `C[C@]12CC[C@@H]3c4ccc(O)cc4CC[C@H]3[C@@H]1CCC2=O` [Estrone, reference compound]?
**A.** ALT [1, 3]: 0.33 ± 0.30 10^3 units/L; AST [1, 3]: 0.56 ± 0.45 10^3 units/L

**Q.** For `C[C@]12CCC(=O)C=C1CC[C@@H]1[C@@H]2[C@@H](O)C[C@@]2(C)[C@H]1CC[C@]2(O)C(=O)COC(=O)CCC(=O)O` [Hydrocortisone 21-succinate, reference compound], which ALT [1, 4] is on record?
**A.** The ALT was 1.596 ± 0.887 10^3 units/L.

**Q.** What about the AST [1, 4] of the same compound?
**A.** The AST was 6.18 ± 3.15 10^3 units/L.

**Q.** And the inhibition in vivo at 100 mg/kg [1, 5]?
**A.** The inhibition in vivo at 100 mg/kg was 25%.

**Q.** What about the “protection” value [1] of the same compound?
**A.** Its value is “no cytoprotection was observed”.

**Q.** `CCCCCCCCCCCCOS(=O)(=O)[O-].[Na+]` [Lauryl sulfate, sodium salt] was tested. Which ALT [1, 6] did it give?
**A.** The ALT was 1.40 ± 0.59 10^3 units/L.

**Q.** And the AST [1, 6]?
**A.** Its AST is 5.00 ± 1.54 10^3 units/L.

**Q.** What about the inhibition in vivo at 100 mg/kg ([1]; Rattus norvegicus, ip, 48 h, read-out: % Hepatoprotection) of the same compound?
**A.** Its inhibition in vivo at 100 mg/kg is 26%.

**Q.** What about the “protection” value [1] of the same compound?
**A.** The value was “generally not protective”.

**Q.** `CCCCC/C=C\C/C=C\CCCCCCCCO` [Linoleyl alcohol, reference compound] was tested. Which ALT [1, 7] did it give?
**A.** Its ALT is 5.45 ± 1.10 10^3 units/L.

**Q.** And the AST [1, 7]?
**A.** Its AST is 15.60 ± 2.98 10^3 units/L.

**Q.** And the “protection” value [1]?
**A.** Its value is “potentiates CCl4 toxicity”.

**Q.** `CCCCC/C=C\C/C=C\CCCCCCCCOC(=O)CCC(=O)O` [Linoleyl succinate] was tested. Which ALT [1, 7] did it give?
**A.** Its ALT is 1.44 ± 0.59 10^3 units/L.

**Q.** And the AST [1, 7]?
**A.** Its AST is 4.47 ± 2.21 10^3 units/L.

**Q.** And the ALT [1, 8]?
**A.** The ALT was 1.95 ± 0.84 10^3 units/L.

**Q.** And the AST [1, 8]?
**A.** The AST was 5.60 ± 1.30 10^3 units/L.

**Q.** And the inhibition in vivo at 100 mg/kg [1, 5]?
**A.** Its inhibition in vivo at 100 mg/kg is 46%.

**Q.** Which results are given for `CCCCCCCCCCCCCCCCO` [Palmityl Alcohol, reference compound]?
**A.** ALT [1, 4]: 1.840 ± 1.106 10^3 units/L; AST [1, 4]: 8.70 ± 3.00 10^3 units/L; protection against CCl4 hepatotoxicity (in words) [1]: generally not protective

**Q.** Which results are given for `CCCCCCCCCCCCCCCCOC(=O)CCC(=O)O` [Palmityl succinate]?
**A.** ALT [1, 4]: 1.679 ± 0.881 10^3 units/L; AST [1, 4]: 6.54 ± 3.61 10^3 units/L; inhibition in vivo at 100 mg/kg [1, 5]: 22%

**Q.** For `C/C(=C\COC(=O)CCC(=O)O)CCCC(C)CCCC(C)CCCC(C)C` (stereo not shown) [Phytol succinate], which ALT [1, 9] is on record?
**A.** The ALT was 1.70 ± 0.18 10^3 units/L.

**Q.** What about the AST [1, 9] of the same compound?
**A.** The AST was 3.29 ± 0.51 10^3 units/L.

**Q.** And the inhibition in vivo at 100 mg/kg [1, 5]?
**A.** Its inhibition in vivo at 100 mg/kg is 27%.

**Q.** What about the “protection” value [1] of the same compound?
**A.** Its value is “generally not protective”.

**Q.** Which results are given for `C/C(=C\CO)CCC[C@H](C)CCC[C@H](C)CCCC(C)C` [Phytol, reference compound]?
**A.** ALT [1, 9]: 2.82 ± 0.54 10^3 units/L; AST [1, 9]: 4.71 ± 1.00 10^3 units/L; protection against CCl4 hepatotoxicity (in words) [1]: generally not protective

**Q.** How did the ALT [1, 10] turn out when `CC1=C(/C=C/C(C)=C/C=C/C(C)=C/C(=O)O)C(C)(C)CCC1` [Retinoic acid, reference compound] was run?
**A.** Its ALT is 6.14 ± 0.74 10^3 units/L.

**Q.** And the AST [1, 10]?
**A.** The AST was 17.94 ± 0.71 10^3 units/L.

**Q.** What about the inhibition in vivo at 50 mg/kg ([1]; Rattus norvegicus, 50 mg/kg ip 20 h prior, 48 h after 1 g/kg CCl4, read-out: % Hepatoprotection) of the same compound?
**A.** The inhibition in vivo at 50 mg/kg was -83%.

**Q.** And the “protection” value [1]?
**A.** The value was “potentiated CCl4 toxicity”.

**Q.** What does the source list for `O=C(O)CCC(=O)O` [Succinic Acid, Na Salt, reference compound]?
**A.** Days Survived after CCl4 ([2]; 24 hours or 1 hour prior and daily thereafter): 2 days; Days Survived After CCl4 Treatment ([2]; single dose 24 h prior, CCl4 […]): 2 days
